Experiments:
cells = test: Cytotoxicity of peptidesomes; type: cell-based; conditions: single-component peptidesomes (Fig. 3a)
[1] = stated without reference; cited from earlier work
Description: As stated in Lipinski's rule of five, most small molecule drugs are lipophilic overall. Pheophorbide a (Pa), a small molecule drug used in this study, is also hydrophobic with a low water solubility of approximately 0.014 g/L. Pa is a porphyrin derivative of plant chlorophyll and has been used as a photosensitizer for photodynamic therapy (PDT). For noncovalent drug loading in R6 peptidesome, R6 and Pa were mixed in DW, and the solution was sonicated vigorously. After this drug loading process, the R6 peptidesomes underwent a morphological transformation into elongated supe ...

[2] = Quantification of singlet oxygen with Singlet Oxygen Sensor Green (SOSG); conditions: RPMI 1640 medium with 10% foetal bovine serum, IR laser irradiation
Protocol: Fig. 4 Nonspecific aggregation of peptidesomes under physiological conditions. (a) PDT effect in SCC7 cells. (b) Quantification of singlet oxygen with Singlet Oxygen Sensor Green (SOSG). The samples were dissolved in RPMI 1640 medium containing 10% foetal bovine serum, and IR laser irradiation was performed for the indicated times. (c) AFM image of the peptidesome←Pa in RPMI 1640 medium (without the serum). R6:RGD2 = 1:9.

SCC7 cells [3] = test: Photodynamic killing of cancer cells (PDT effect), MTT assay; type: cell-based; conditions: 24 h treatment, IR laser 671 nm at 1.59 J/cm^2, peptidesome fabricated in DW
Protocol: Having controlled the nano- and biostructural properties of the peptidesomes in terms of intracellular delivery efficiency and cytotoxicity, we then evaluated their tumoricidal photodynamic effects in tissue culture. Squamous cell carcinoma 7 (SCC7) cells were treated with free Pa or the peptidesome←Pa for 24 h, followed by infrared (IR) laser irradiation (671 nm) at 1.59 J/cm^2. Cytotoxicity as a measure of the photodynamic killing of cancer cells was determined using the MTT assay. […] To probe the reason behind this negative result, the amount of single oxygen (SO) generated was quantified after the incubation of both groups in cell culture medium (with serum). The amount of SO was far higher for free Pa than for peptidesome←Pa, which accounts for the results of the PDT assay (Fig. 4b). It has been shown that the aggregation of porphyrin derivatives reduced SO generation and negatively affected PDT efficacy. […] The aggregation would have been more severe in cell culture medium containing serum. Taken together, the nonspecific aggregation of the peptidesome←Pa is likely responsible for the reduced SO generation and the lack of PDT effect. The morphology of peptidesome before and after NIR irradiation was also monitored by AFM (Fig. S12). […]

SCC7 cells [4] = test: In vitro cellular uptake, CLSM and flow cytometry; type: cell-based; conditions: 4 h treatment, flow cytometry of Pa fluorescence
Protocol: Cellular uptake of materials in SCC7 cells was analyzed based on the intrinsic fluorescence of Pa via CLSM (LSM700, Carl Zeiss, Germany) and flow cytometry (FACS Canto II, BD Biosciences, Bedford, MA, USA). SCC7 cells were seeded in 24-well plates at a density of 5 × 10^4 and incubated overnight. Then, 200 μL of the sample in an appropriate solution was added to 800 μL of complete medium for each well. The cells were treated with the samples for 4 h followed by the removal of the sample solution and the washing step. For cell imaging, nuclei were also stained with Hoechst 33,342.

SCC7 tumor-bearing mice = test: In vivo antitumor (photodynamic) efficacy; design: species or system mouse; conditions: end of therapy (14 days)
Protocol: The SCC7 tumor-bearing mouse models were prepared similarly to the in vivo imaging experiment, and each sample was prepared in the same way as in the in vivo IVIS imaging experiments. The samples were intravenously injected into the mice when the tumor volume reached approximately 50 mm^3. Three hours postinjection of the samples, NIR laser (671 nm) irradiation was administered to the tumor site with a power of 0.53 W/cm^2 for 15 min, and the same sample injection and NIR irradiation procedures were repeated at the next day. The tumor volume and body weight were recorded every two days. At the end of the therapy, major organs and tumors were dissected for histological analysis. They were fixed, sliced, stained with haematoxylin and eosin (H&E), and observed with a microscope (AxioImager A1, Zeiss, Germany).

| Compound | Cytotoxicity of peptidesomes (cells) | water solubility [1] | amount of singlet oxygen (SO) generated, free Pa versus peptidesome←Pa [2] | PDT effect (cytotoxicity, MTT) (SCC7 cells [3]) | cell internalization efficiency relative to peptidesome←Pa (SCC7 cells [4]) [fold] | excised tumor weight, times larger than peptidesome←Pa (G&G)-treated group (SCC7 tumor-bearing mice) | weight of the excised tumor (SCC7 tumor-bearing mice; n = 4) [mg] |
| --- | --- | --- | --- | --- | --- | --- | --- |
| CCCCCCCCCCCC(=O)N[C@H]1CCCCNC(=O)[C@H](Cc2c[nH]c3ccccc23)NC(=O)CCC(=O)NCCOCCOCCNC(=O)[C@H](CCCNC(=N)N)NC(=O)[C@H](CCCNC(=N)N)NC(=O)[C@H](CCCNC(=N)N)NC(=O)[C@H](CCCNC(=N)N)NC(=O)[C@H](CCCNC(=N)N)NC(=O)[C@H](CCCNC(=N)N)NC(=O)CCC(=O)NCCOCCOCCNC(=O)[C@H](Cc2c[nH]c3ccccc23)NC1=O [R6] | highly toxic |  |  |  |  |  |  |
| C=Cc1c(C)c2cc3nc(c4c5[nH]c(cc6nc(cc1[nH]2)C(C)=C6CC)c(C)c5C(=O)[C@@H]4C(=O)OC)[C@@H](CCC(=O)O)[C@@H]3C [Pa, Pheophorbide a] |  | approximately 0.014 g/L | far higher | strong dose-dependent PDT effect | 5 | approximately 3 times | 1222 |
